Results: patent US20240034724A1, “THERAPEUTIC COMPOUNDS USEFUL FOR THE PROPHYLACTIC OR THERAPEUTIC TREATMENT OF AN HIV VIRUS INFECTION” (Gilead Sciences, Inc., priority 2022, published 2024)
pEC50: −log10 of the molar value.

How the values were obtained:
HIV-1 (IIIb strain) = assay: Test A: Antiviral Assay in the Human MT-4 T-Lymphoblastoid Cell Line; type: cell-based; conditions: Human immunodeficiency virus 1, MT4, 120 h; MT-4 cells infected with HIV-1 IIIb, 5 days, CellTiter-Glo, protection from virus-induced cell death
Procedure: Test A: Antiviral Assay in the Human MT-4 T-Lymphoblastoid Cell Line
(§1) For the MT-4 antiviral assay, 50 μL of 3-fold serially diluted compound in complete RPMI medium was added to each well of a 384-well plate (10 concentrations) in quadruplicate. MT-4 cells were infected with HIV-1 (IIIb strain) at a multiplicity of infection (m.o.i.) of ˜0.005 for 1 hour at 37° C. and 20 μL of virus/cell mixture (˜2,000 cells) was added to each well of the assay plate containing 50 μL of diluted compound. A positive control (1 μM azidothymidine, AZT) and a negative control (dimethyl sulfoxide, DMSO) were included in every assay plate to define 100% and 0% protection, respectively. The final DMSO concentration in the assay was 0.5%. The plates were then incubated at 37° C. for 5 days. At the end of the incubation, 30 μL of CellTiter-Glo reagent (Promega Madison, WI) was added to each well of the assay plates. Cell lysis was carried out by incubating the assay plates at room temperature for 10 minutes followed by the quantification of chemiluminescence signal using an EnVision plate reader (Perkin Elmer, Shelton, CT). Antiviral dose response data were normalized to positive and negative controls in each plate and analyzed by curve fitting after conversion of the data to % cell death to determine the half-maximal effective concentration (EC50) value, defined as the compound concentration that caused a 50% protection from cytopathic effect (CPE)-dependent virus-induced cell death.

[1] = Test B: Cytotoxicity Assay in MT-4 Cells; type: cell-based; conditions: human, uninfected MT-4 cells, CellTiter-Glo
Procedure: as §1, with “death. Test B: Cytotoxicity Assay in MT-4 Cells Compound cytotoxicity and the corresponding half-maximal cytotoxicity concentration (CC50) values was determined using the same protocol as described in the antiviral assay (Test A) except that uninfected cells were used and the data were normalized to the 100% viability control (DMSO) wells on each plate.” for “death.”

Structure (SMILES): CN(c1nn(CC(F)(F)F)c2c(-c3ccc(C#CC(C)(C)S(C)(=O)=O)nc3[C@H](Cc3cc(F)cc(F)c3)NC(=O)Cn3nc(C(F)(F)F)c4c3C(F)(F)[C@@H]3C[C@H]43)ccc(Cl)c12)S(C)(=O)=O [Example 4, N—((S)-1-(3-(4-chloro-3-(N-methylmethylsulfonamido)-1-(2,2,2-trifluoroethyl)-1H-indazol-7-yl)-6-(3-methyl-3-(methylsulfonyl)but-1-yn-1-yl)pyridin-2-yl)-2-(3,5-difluorophenyl)ethyl)-2-((3bS,4aR)-5,5-difluoro-3-(trifluoromethyl)-3b,4,4a,5-tetrahydro-1H-cyclopropa[3,4]cyclopenta[1,2-c]pyrazol-1-yl)acetamide]
- pEC50 (HIV-1 (IIIb strain)): 8.08
- CC50 at 5 days [1]: > 50000 nM

Structure (SMILES): CC(C)(O)C#Cc1ccc(-c2ccc(Cl)c3c(NS(C)(=O)=O)nn(CC(F)(F)F)c23)c([C@H](Cc2cc(F)cc(F)c2)NC(=O)Cn2nc(C(F)(F)F)c3c2C(F)(F)[C@@H]2C[C@H]32)n1 [Example 1, N—((S)-1-(3-(4-chloro-3-(methylsulfonamido)-1-(2,2,2-trifluoroethyl)-1H-indazol-7-yl)-6-(3-hydroxy-3-methylbut-1-yn-1-yl)pyridin-2-yl)-2-(3,5-difluorophenyl)ethyl)-2-((3bS,4aR)-5,5-difluoro-3-(trifluoromethyl)-3b,4,4a,5-tetrahydro-1H-cyclopropa[3,4]cyclopenta[1,2-c]pyrazol-1-yl)acetamide]
- pEC50 (HIV-1 (IIIb strain)): 9.47
- CC50 at 5 days [1]: 3610 nM

Structure (SMILES): CC(C)(C#Cc1ccc(-c2cccc3c(NS(C)(=O)=O)nn(CC(F)(F)F)c23)c([C@H](Cc2cc(F)cc(F)c2)NC(=O)Cn2nc(C(F)(F)F)c3c2C(F)(F)[C@@H]2C[C@H]32)n1)S(C)(=O)=O [Example 5, 2-((3bS,4aR)-5,5-difluoro-3-(trifluoromethyl)-3b,4,4a,5-tetrahydro-1H-cyclopropa[3,4]cyclopenta[1,2-c]pyrazol-1-yl)-N—((S)-2-(3,5-difluorophenyl)-1-(6-(3-methyl-3-(methylsulfonyl)but-1-yn-1-yl)-3-(3-(methylsulfonamido)-1-(2,2,2-trifluoroethyl)-1H-indazol-7-yl)pyridin-2-yl)ethyl)acetamide]
- pEC50 (HIV-1 (IIIb strain)): 10.15
- CC50 at 5 days [1]: 9480 nM

Structure (SMILES): CCN(c1nn(CC(F)(F)F)c2c(-c3ccc(C#CC(C)(C)S(C)(=O)=O)nc3[C@H](Cc3cc(F)cc(F)c3)NC(=O)Cn3nc(C(F)(F)F)c4c3C(F)(F)[C@@H]3C[C@H]43)ccc(Cl)c12)S(C)(=O)=O [Example 6, N—((S)-1-(3-(4-chloro-3-(N-ethylmethylsulfonamido)-1-(2,2,2-trifluoroethyl)-1H-indazol-7-yl)-6-(3-methyl-3-(methylsulfonyl)but-1-yn-1-yl)pyridin-2-yl)-2-(3,5-difluorophenyl)ethyl)-2-((3bS,4aR)-5,5-difluoro-3-(trifluoromethyl)-3b,4,4a,5-tetrahydro-1H-cyclopropa[3,4]cyclopenta[1,2-c]pyrazol-1-yl)acetamide]
- pEC50 (HIV-1 (IIIb strain)): 8.48
- CC50 at 5 days [1]: > 50000 nM

Structure (SMILES): CC(C)C#Cc1ccc(-c2ccc(Cl)c3c(NS(C)(=O)=O)nn(CC(F)(F)F)c23)c([C@H](Cc2cc(F)cc(F)c2)NC(=O)Cn2nc(C(F)(F)F)c3c2C(F)(F)[C@@H]2C[C@H]32)n1 [Example 3, N—((S)-1-(3-(4-chloro-3-(methylsulfonamido)-1-(2,2,2-trifluoroethyl)-1H-indazol-7-yl)-6-(3-methylbut-1-yn-1-yl)pyridin-2-yl)-2-(3,5-difluorophenyl)ethyl)-2-((3bS,4aR)-5,5-difluoro-3-(trifluoromethyl)-3b,4,4a,5-tetrahydro-1H-cyclopropa[3,4]cyclopenta[1,2-c]pyrazol-1-yl)acetamide]
- pEC50 (HIV-1 (IIIb strain)): 7.68
- CC50 at 5 days [1]: 7500 nM

Structure (SMILES): C=C(C)C#Cc1ccc(-c2ccc(Cl)c3c(NS(C)(=O)=O)nn(CC(F)(F)F)c23)c([C@H](Cc2cc(F)cc(F)c2)NC(=O)Cn2nc(C(F)(F)F)c3c2C(F)(F)[C@@H]2C[C@H]32)n1 [Example 2, N—((S)-1-(3-(4-chloro-3-(methylsulfonamido)-1-(2,2,2-trifluoroethyl)-1H-indazol-7-yl)-6-(3-methylbut-3-en-1-yn-1-yl)pyridin-2-yl)-2-(3,5-difluorophenyl)ethyl)-2-((3bS,4aR)-5,5-difluoro-3-(trifluoromethyl)-3b,4,4a,5-tetrahydro-1H-cyclopropa[3,4]cyclopenta[1,2-c]pyrazol-1-yl)acetamide]
- pEC50 (HIV-1 (IIIb strain)): 7.74
- CC50 at 5 days [1]: 8740 nM
